SMILES strings stand for the structures. Where two headings read alike, the source gives them in different places.

Assay [1] has as its target T1, Mu Receptor (Rattus norvegicus, UniProt P33535).
T1 construct: Rat (Sprague-Dawley) brain membranes were prepared; from tissue; host or cells: rat (Sprague-Dawley) brain membranes
Description: Mu receptor binding, rat brain membranes. More on the design: species or system rat (Sprague-Dawley).

In assay [2] the target is T2, Delta Receptor (Rattus norvegicus, UniProt P33533).
T2 construct: Rat (Sprague-Dawley) brain membranes were prepared; from tissue; host or cells: rat (Sprague-Dawley) brain membranes
As to the kind of experiment: Delta receptor binding, rat brain membranes. Also noted: species or system rat (Sprague-Dawley).

Assay [3] has as its system guinea pig ileum. As to the kind of experiment: Inhibition of electrically stimulated contraction of guinea pig ileum. Type of assay: cell-based. The conditions noted are these: Cavia porcellus, mean of (n) experiments, read-out: Guinea Pig lleum ED50.
In assay [4] the target is T3, mouse vas deferens (Mus musculus, UniProt P32300).
T3 construct: Vasa deferentia were removed from mice; from tissue; host or cells: mouse vas deferens
Description: cell-based. In kind it is cell-based.

The mark [5] stands for this setting: 125I-[D-Ala2,N-MePhe4,Met(O)ol5]enkephalin 0.1 nM, 24° C., 60 min, mean of (n) experiments, read-out: Mu Receptor IC50.
The mark [6] stands for this setting: 125I-[D-Ala2,D-Leu5]enkephalin 0.24 nM with mu-agonist morphiceptin analog, 24° C., 60 min, mean of (n) experiments, read-out: Delta Receptor IC50.
[7] abbreviates: electrically stimulated, 37° C., mean of (n) experiments, read-out: Mouse Vas Deferens ED50.

T1 sequence (P33535 whole entry): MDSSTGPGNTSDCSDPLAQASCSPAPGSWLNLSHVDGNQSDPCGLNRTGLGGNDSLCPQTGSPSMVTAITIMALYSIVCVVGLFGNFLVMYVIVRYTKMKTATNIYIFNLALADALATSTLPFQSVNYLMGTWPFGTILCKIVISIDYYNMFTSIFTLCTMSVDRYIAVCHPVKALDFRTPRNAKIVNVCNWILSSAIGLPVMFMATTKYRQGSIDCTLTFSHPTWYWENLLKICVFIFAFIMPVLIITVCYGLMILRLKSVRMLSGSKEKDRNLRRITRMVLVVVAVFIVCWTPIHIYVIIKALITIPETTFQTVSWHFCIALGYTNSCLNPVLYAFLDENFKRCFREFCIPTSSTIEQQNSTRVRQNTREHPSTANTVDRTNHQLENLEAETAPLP
T2 sequence (P33533 whole entry): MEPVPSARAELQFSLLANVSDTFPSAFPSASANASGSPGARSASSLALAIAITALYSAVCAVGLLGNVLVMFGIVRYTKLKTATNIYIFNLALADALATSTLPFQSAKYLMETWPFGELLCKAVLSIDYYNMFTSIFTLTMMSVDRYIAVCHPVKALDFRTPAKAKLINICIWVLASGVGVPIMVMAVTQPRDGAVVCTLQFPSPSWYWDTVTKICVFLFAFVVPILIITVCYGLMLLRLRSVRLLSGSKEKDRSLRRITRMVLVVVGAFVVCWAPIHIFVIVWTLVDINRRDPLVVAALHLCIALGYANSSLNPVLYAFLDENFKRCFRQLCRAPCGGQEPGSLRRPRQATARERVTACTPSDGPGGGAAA
T3 sequence (P32300 whole entry): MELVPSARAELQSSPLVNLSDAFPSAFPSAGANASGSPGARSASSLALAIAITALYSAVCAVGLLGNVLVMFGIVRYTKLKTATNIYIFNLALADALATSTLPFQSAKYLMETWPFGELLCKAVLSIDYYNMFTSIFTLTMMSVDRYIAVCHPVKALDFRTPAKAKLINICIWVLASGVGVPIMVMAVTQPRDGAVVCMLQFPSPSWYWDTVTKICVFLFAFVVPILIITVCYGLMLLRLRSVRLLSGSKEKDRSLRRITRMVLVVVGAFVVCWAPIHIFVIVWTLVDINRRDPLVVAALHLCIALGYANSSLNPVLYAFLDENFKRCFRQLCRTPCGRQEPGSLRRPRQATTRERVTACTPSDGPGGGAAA

In the case of `CCN(CC)C(=O)c1ccc(C(c2cccc(O)c2)N2C[C@@H](C)N(C)[C@@H](C)C2)cc1` (relative stereo) [Example 34, N,N-Diethyl-4-(3-hydroxy-α-(cis-3,4,5-trimethyl-1-piperazinyl)benzyl)benzamide], the IC50 in assay [1] (setting [5]) is over 10000 nM; in assay [2] (setting [6]), 4 nM; in assay [3], 3700 nM; in assay [4] it was over 10000 nM.

In the case of `C=CCN1C[C@H](C)N([C@H](c2ccc(C(=O)N(CC)CC)cc2)c2cccc(O)c2)C[C@H]1C` (relative stereo) [Example 6, (±)-4-((αR*)-α-((2S*,5R*)-4-Allyl-2,5-dimethyl-1-piperazinyl)-3-hydroxybenzyl)-N,N-diethylbenzamide], the IC50 stood at 1.8 nM in assay [2] (setting [6]), 143 nM in assay [3] and 0.2 nM in assay [4].

Regarding `C=CCN1C[C@H](C)N([C@H](c2cccc(O)c2)c2cccs2)C[C@H]1C` [Example 67, (-)-3-((R)-((2S,5R)-4-Allyl-2,5-dimethyl-1-piperazinyl)(2-thienyl)methyl)phenol], the IC50 in assay [1] (read-out: Mu Receptor IC50, 125I-[D-Ala2,N-MePhe4,Met(O)ol5]enkephalin 0.1 nM, 24° C., 60 min, mean of (n) experiments) came to 0.3 nM; in assay [2] (read-out: Delta Receptor IC50, 125I-[D-Ala2,D-Leu5]enkephalin 0.24 nM with mu-agonist morphiceptin analog, 24° C., 60 min, mean of (n) experiments), 27 nM; in assay [4] (read-out: Mouse Vas Deferens ED50, electrically stimulated, 37° C., mean of (n) experiments), 20 nM.

For `C=CCN1C[C@H](C)N(C(c2ccc(C(=O)N(CC)CC)cc2)c2cccc(NC=O)c2)C[C@H]1C` (mixture of isomers) [Example 36, (±)-trans-4-(α-(4-allyl-2,5-dimethyl-1-piperazinyl)-3-formamidobenzyl)-N,N -diethylbenzamide], the IC50 was determined as 260 nM in assay [1] (setting [5]), 9.1 nM in assay [2] (setting [6]), 1300 nM in assay [3] and 2 nM in assay [4].

For the compound `C=CCN1C[C@@H](C)N([C@H](c2ccccc2)c2cccc(O)c2)C[C@@H]1C` (relative stereo) [Example 9, (±)-3-((αR*)-α-((2R*,5S*)-4-Allyl-2,5-dimethyl-1-piperazinyl)benzyl)phenol], the IC50 in assay [1] (setting [5]) was 1.1 nM; in assay [2] (setting [6]), 16 nM; in assay [3], 4 nM; in assay [4] it was 40 nM.

With `C=CCN1C[C@H](C)N([C@H](c2ccc(C(=O)N(CC)CC)cc2)c2cccc(O)c2)C[C@H]1C` [Example 6a, (+)-4-((αR)-α-((2S,5R)-4-Allyl-2,5-dimethyl-1-piperazinyl)-3-hydroxybenzyl)-N,N-diethylbenzamide], the IC50 in assay [2] (setting [6]) stood at 1.2 nM; in assay [3], 84 nM; in assay [4] it was 0.17 nM.

As to `C=CCN1C[C@H](C)N([C@H](c2cccc(O)c2)c2cccs2)C[C@H]1C` (relative stereo) [Example 44, (±)-3-((R*)-((2S*,5R*)-4-Allyl-2,5-dimethyl-1-piperazinyl)(2-thienyl)methyl)phenol], the figures for the IC50 in assay [1] (setting [5]), in assay [2] (setting [6]) and in assay [4] were 0.8 nM, 11 nM and 37 nM, respectively.

Take `CCN(CC)C(=O)c1ccc([C@H](c2cccc(O)c2)N2C[C@H](C)NC[C@H]2C)cc1` (relative stereo) [Example 15, (±)-4-((αR*)-α-((2R*,5S*)-2,5-Dimethyl-1-piperazinyl)-3-hydroxybenzyl)-N,N-diethylbenzamide]: the values for the IC50 in assay [1] (setting [5]), in assay [3] and in assay [4] were 120 nM, 2700 nM and 4400 nM, respectively.

`C=CCN1C[C@H](C)N([C@H](c2ccc(C(=O)N(CC)CCO)cc2)c2cccc(O)c2)C[C@H]1C` (relative stereo) [Example 60, (±)-4-((αR*))-α-((2S*,5R*)-4-Allyl-2,5-dimethyl-1-piperazinyl)-3-hydroxy-benzyl)-N-ethyl-N-(2-hydroxyethyl)benzamide]: the IC50 in assay [1] (setting [5]) is 20 nM; in assay [2] (setting [6]) it was 6.5 nM; in assay [3] it was 86 nM; in assay [4], 0.3 nM.

In the case of `C=CCN1C[C@H](C)N([C@H](c2ccc(S(C)(=O)=O)cc2)c2cccc(O)c2)C[C@H]1C` (relative stereo) [Example 54, (±)-3-((αR*)-α-((2S*,5R*)-4-allyl-2,5-dimethyl-1-piperazinyl)-4-(methylsulfonyl)benzyl)phenol], the IC50 in assay [1] (setting [5]) was 40 nM; in assay [2] (setting [6]), 1.3 nM; in assay [3] it was 5600 nM; in assay [4], 42 nM.

Consider `C=CCN1C[C@H](C)N([C@H](c2ccc(C(=O)NCCOCCOCCNC(=O)c3ccc([C@H](c4cccc(O)c4)N4C[C@@H](C)N(CC=C)C[C@@H]4C)cc3)cc2)c2cccc(O)c2)C[C@H]1C` (relative stereo) [Example 41, N,N'-((Ethylenedioxy)diethylene)bis(4-((R*)-α-((2S*,5R*)-4-allyl-2,5-dimethyl-1-piperazinyl)-3-hydroxybenzyl)benzamide)], for which the IC50 in assay [1] (setting [5]) was found to be 4 nM; in assay [2] (setting [6]) it was 10 nM; in assay [3], 6.5 nM; in assay [4] (setting [7]), 13 nM.

In the case of `C=CCN1C[C@H](C)N([C@@H](c2cccc(O)c2)c2cccc(C(=O)N(CC)CC)c2)C[C@H]1C` (relative stereo) [Example 84, (±)-3-((αR*)-α-((2S*,5R*)-4-allyl-2,5-dimethyl-1-piperazinyl)-3-hydroxybenzyl)-N,N-diethylbenzamide], the IC50 turned out to be 1.6 nM in assay [2] (setting [6]), 10 nM in assay [3] and 8.6 nM in assay [4].

For the compound `CCN(CC)C(=O)c1ccc(C(C2=C(C)CN(C)C(C)C2)c2cccc(O)c2)cc1` (racemic) [Example 51, (±)-(R*, R*) or (R*, S*)-N,N-diethyl-4-(3-hydroxy-α-(1,2,5,6-tetrahydro-1,3,6-trimethyl-4-pyridyl)benzyl)benzamide], the IC50 in assay [1] (setting [5]) came to 130 nM; in assay [2] (setting [6]) it was 2.5 nM; in assay [3], 3000 nM; in assay [4] (setting [7]), 52 nM.

On to `C/C=C\CN1[C@H](C)CN(C(c2ccc(C(=O)N(CC)CC)cc2)c2cccc(O)c2)C[C@@H]1C` (relative stereo) [Example 11, cis-4-(α-(4-((Z)-2-Butenyl)-3,5-dimethyl-1-piperazinyl)-3-hydroxybenzyl)-N,N-diethylbenzamide], for which the IC50 in assay [1] (setting [5]) is 600 nM; in assay [3] it was 3600 nM; in assay [4], over 10000 nM.

For `C=CCN1C[C@H](C)N([C@H](c2ccc(S(=O)(=O)N(CC)CC)cc2)c2cccc(O)c2)C[C@H]1C` (relative stereo) [Example 59, (±)-4-((αR*)-α-((2S*,5R*)-4-Allyl-2,5-dimethyl-1-piperazinyl)-3-hydroxybenzyl)-N,N-diethylbenzenesulfonamide], the IC50 in assay [1] (setting [5]) worked out at 100 nM; in assay [2] (setting [6]), 20 nM; in assay [3] it was 1800 nM; in assay [4], 2.6 nM.

On to `CCN(CC)C(=O)c1ccc([C@H](c2cccc(O)c2)N2C[C@H](C)N(C)C[C@@H]2C)cc1` [Example 12, (+)-N,N-diethyl-4-(3-hydroxy-(αR)-α-((2S,5S)-2,4,5-trimethyl-1-piperazinyl)benzyl)benzamide], for which the IC50 in assay [1] (setting [5]) was 150 nM; in assay [2] (setting [6]), 1.2 nM; in assay [3] it was over 10000 nM; in assay [4], 2 nM.

As to `C=CCN1C[C@H](C)N([C@H](c2ccc(C(=O)NCC(=O)NCC(=O)O)cc2)c2cccc(O)c2)C[C@H]1C` (relative stereo) [Example 25, (±)-N-(4-((αR*)-α-((2S*,5R*)-4-Allyl-2,5-dimethyl-1-piperazinyl)-3-hydroxybenzyl)benzoyl)glycylglycine], the IC50 came out at 70 nM in assay [1] (setting [5]), 0.4 nM in assay [2] (setting [6]), 300 nM in assay [3] and 2 nM in assay [4].

Values taken from US5658908A (priority 1992, dated 1997).
